“Also recorded” adds a separate entry of the source. Residues, ends and D or L forms follow the SMILES beside them. No end group written: not given here. *: point of attachment. X1 = C[C@]12CCC(=O)C=C1CC[C@@H]1[C@@H]2[C@@H](O)C[C@@]2(C)[C@H]1CC[C@]2(O)C(=O)COC(=O)CCC(=O)*
Columns and labels:
cartilage sections = assay: Coupling of peptide conjugates to cartilage sections via tTG, fluorescein anti-biotin staining; assay type: biochemical, bovine
Protocol: Partial depolymerization of glycosaminoglycans in the tissue was accomplished by digesting with chondroitinase ABC at 40 mU/mL in 50 mM Tris, 70 mM sodium acetate and 0.01% bovine serum albumin (BSA) at pH 8 for 30 minutes at 37° C. Samples were then rinsed 3 times with TBS and blocked with 1% BSA in TBS for one hour at room temperature. The tTG reaction conditions used were similar to a previously described method. (See, Aeschlimann D, Wetterwald A, Fleisch H, and Paulsson M. Expression of tissue transglutaminase in skeletal tissues correlates with events of terminal differentiation of chondrocytes. Journal of Cell Biology 1993; 120: 1461-1470.) The cartilage sections were incubated in 500 μL of 50 μM peptide or peptide-PEG conjugate, 0.5 U/mL tTG, 5 mM CaCl2, 2.5 mM dithiothreitol and 100 mM Tris, at pH 8.3 for 30 min at 37° C. Control experiments were performed in the absence of tTG. After completion of the tTG reaction, the solution was removed and samples were rinsed 3 times with 1% BSA in TBS for 5 minutes each. The cartilage sections were then incubated with fluorescein conjugated anti-biotin antibody at 10 μg/mL in 1% BSA in TBS for 2 hours at room temperature. Samples were rinsed 4 times with TBS for 5 minutes each, followed by blocking with 10% donkey serum for 1 hour and incubation with rabbit anti-collagen II antibody in TBS containing 10% donkey serum for 1 hour. The samples were rinsed 3 times with 10% donkey serum in TBS and then incubated with Texas Red conjugated donkey anti-rabbit antibody. Samples were rinsed again with TBS and then imaged using a Leica epifluorescent microscope (λex=495 nm, λem=520 for fluorescein and λex=596 nm, λem=620 for Texas Red) and a SPOT RT digital camera (Diagnostic Instruments, Sterling Heights, Mich.).
Images were analyzed using Metamorph image analysis software (Molecular Devices, Sunnyvale, Calif.). Fluorescein fluorescence was measured at three randomly selected areas of the middle zone on each cartilage section image and then averaged. A similar procedure was utilized to determine Texas Red fluorescence. The fluorescein fluorescence intensity was then normalized to the fluorescence of the Texas Red for each cartilage section image in order to account for potential ECM differences between sections. Finally, the average green fluorescence for each peptide-PEG conjugate was then normalized by dividing by the red fluorescence.

collagen II = molecular target: T1, collagen II (Homo sapiens, UniProt P02458); assay: Reaction of peptide conjugates with cartilage ECM protein in solution via tTG; assay type: biochemical; settings: type II collagen, 500 μM conjugate, 0.05 U/mL tTG, 30 min at 37° C.
T1 construct: isolated by pepsin digestion, which yields primarily the triple helical region of collagen II; purchased Chondrex, Redmond, Wash
Protocol: (§1) Fibronectin, collagen II, osteonectin, and osteopontin were separately combined at 0.1% (w/v) in 100 mM Tris and 5 mM CaCl2 with 500 μM peptide-PEG conjugates and 0.05 U/mL tTG. The reaction was allowed to proceed for 30 min at 37° C. and then stopped with the addition of iodoacetamide (1 mM final concentration). Control experiments without transglutaminse were also performed. The proteins were then separated using SDS-PAGE with either 7.5% fibronectin and collagen II) or 10% (osteonectin and osteopontin) gels, transferred to PVDF membranes which were then blocked with 2% BSA in TBS with 0.1% Tween (TBS-T). The modified proteins were probed with peroxidase conjugated ExtrAvidin. Detection of bound ExtrAvidin was accomplished using ECL Plus Western Blotting Detection Reagents and imaged on a Storm 860 imager (GE Healthcare Biosciences, Piscataway, N.J.). Band intensities were measured using ImageQuant (GE Healthcare Biosciences). Statistical analysis was performed using one-way ANOVA and Tukey's post-hoc test with 95% confidence intervals with SPSS (SPSS, Chicago, Ill.). Reactions of B72Q and B72K with osteonectin and osteopontin were dialyzed against 10 mM acetic acid and then analyzed by MALDI-TOF MS.

osteonectin = molecular target: T2, osteonectin (Homo sapiens, UniProt P09486); assay: as above; assay type: biochemical; settings: for reactivity / normalized band intensity on western blot: osteonectin, 500 μM conjugate, 0.05 U/mL tTG, 30 min at 37° C.; for number of conjugate molecules coupled per protein (MALDI-TOF): osteonectin with tTG
T2 construct: purchased Biodesign, Saco, Me
T2 sequence (P09486 18-303): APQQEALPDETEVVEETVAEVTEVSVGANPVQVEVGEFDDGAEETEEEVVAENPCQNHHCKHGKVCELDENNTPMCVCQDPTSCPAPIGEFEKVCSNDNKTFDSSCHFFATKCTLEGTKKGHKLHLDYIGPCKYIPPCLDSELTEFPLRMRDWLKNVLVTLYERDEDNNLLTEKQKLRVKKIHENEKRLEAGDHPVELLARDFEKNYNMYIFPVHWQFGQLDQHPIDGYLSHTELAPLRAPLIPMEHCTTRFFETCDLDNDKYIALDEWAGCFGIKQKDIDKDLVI
Protocol: as §1

osteopontin = molecular target: T3, osteopontin (Homo sapiens, UniProt P10451); assay: as above; assay type: biochemical; settings: for reactivity / normalized band intensity on western blot: osteopontin, 500 μM conjugate, 0.05 U/mL tTG, 30 min at 37° C.; for number of conjugate molecules coupled per protein (MALDI-TOF): osteopontin with tTG
T3 construct: purchased R&D Systems, Minneapolis, Minn
Protocol: as §1

Fibronectin = molecular target: T4, Fibronectin (Homo sapiens, UniProt P02751); assay: as above; assay type: biochemical; settings: 500 μM conjugate, 0.05 U/mL tTG, 30 min at 37° C.
T4 construct: purchased Sigma, St. Louis, Mo
Protocol: as §1

cartilage = settings: for average depth of peptide coupling: with tTG, chondroitinase ABC digested cartilage, along the cut edge
Protocol: For the coupling of peptide conjugates to cartilage sections, osteochondral plugs were extracted from adult bovine metacarpophalangeal joints using a hole punch with a diameter of 0.793 cm. Samples were then frozen in tissue freezing media and stored at −80° C. until use. Vertical sections (25 μm), which included the articular surface as well as a portion of the underlying bone, were cut using a cryostat (Microm HM505N, Carl Zeiss) and the freezing media was removed with 3 washes of Tris buffered saline (TBS) (50 mM Tris, 100 mM NaCl) at pH 7.4. For the penetration studies, four millimeter by two millimeter rectangular samples of cartilage were excised from adult bovine metacarpophalangeal joint to a depth of 200-250 microns from the articular surface. Samples were frozen as described earlier for later use, at which time they were thawed and rinsed in TBS.
Four millimeter by two millimeter rectangular samples of cartilage were thawed and rinsed, after which the chondroitinase ABC digestion and tTG reactions with the peptide and peptide-PEG conjugates were performed as stated above. […] The samples were then frozen in tissue freezing media followed by cutting using a cryostat. Twenty micron thick vertical sections were collected from each cartilage piece, rinsed in TBS, blocked with 1% BSA TBS containing 0.1% Tween (TBST), and incubated with peroxidase conjugated anti-biotin antibody at 5 μg/mL in 1% BSA in TBS-T for 2 hours at room temperature. Samples were rinsed 4 times with TBS and 4 times with distilled water. Finally, the anti-biotin antibody was detected using a DAB kit which contains the peroxidase substrate 3,3′-diaminobenzidine yielding a brown color. Samples were imaged using a Leica microscope (brightfield) and a SPOT RT digital camera.
Adobe Photoshop (Adobe, Inc, San Jose, Calif.) was used to measure the depth to which the peptide and peptide-PEG conjugates were detected. The depth of staining into the cartilage along the cut surface perpendicular to the articular surface was measured at distances of 60, 120 and 180 microns from the articular surface for each sample. The average depth of staining for each sample was calculated from these three measurements. For each peptide and peptide-PEG conjugate, an overall mean depth of staining was determined from the measurements of three samples.
In a separate series of experiments, 2 mm by 4 mm by 200-250 μm pieces of cartilage were incubated with each peptide-PEG conjugate and tTG. At the completion of the reaction, the cartilage pieces were frozen and sectioned and the coupled peptide conjugates were detected with a perioxidase anti-biotin antibody. The bound antibody was detected with DAB reagent which forms a brown precipitate in the presence of perioxidase. […] The depth of peptide penetration and coupling was measured along the cut edge at 60, 120, and 180 μm from the articular surface as shown schematically in FIG. 6.

tTG = molecular target: T5, tTG (UniProt P08587); settings: reactivity with the enzyme (tTG); cited from earlier work
T5 sequence (P08587 1-690): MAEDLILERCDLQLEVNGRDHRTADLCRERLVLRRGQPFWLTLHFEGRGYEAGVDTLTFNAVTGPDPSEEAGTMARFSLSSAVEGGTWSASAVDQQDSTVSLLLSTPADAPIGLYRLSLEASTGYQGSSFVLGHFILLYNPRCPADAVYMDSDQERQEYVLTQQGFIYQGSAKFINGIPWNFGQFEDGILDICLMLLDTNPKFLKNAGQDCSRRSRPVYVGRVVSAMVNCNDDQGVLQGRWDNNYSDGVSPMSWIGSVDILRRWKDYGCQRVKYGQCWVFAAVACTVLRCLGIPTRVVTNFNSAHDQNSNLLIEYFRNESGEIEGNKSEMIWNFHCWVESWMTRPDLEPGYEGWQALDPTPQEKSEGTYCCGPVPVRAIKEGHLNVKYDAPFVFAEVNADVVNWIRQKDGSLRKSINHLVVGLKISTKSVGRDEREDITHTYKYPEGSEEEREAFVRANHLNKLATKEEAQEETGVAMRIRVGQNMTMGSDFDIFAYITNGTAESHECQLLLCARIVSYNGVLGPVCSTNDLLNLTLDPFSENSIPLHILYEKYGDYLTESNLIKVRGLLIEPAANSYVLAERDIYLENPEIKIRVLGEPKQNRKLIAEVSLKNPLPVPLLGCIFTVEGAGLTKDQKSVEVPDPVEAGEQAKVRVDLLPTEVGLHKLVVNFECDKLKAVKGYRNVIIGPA

[1] = Hydrolysis of the hydrocortisone prodrug in normal synovial fluid; assay type: in vitro ADME, bovine
Protocol: A 30 μL portion of each sample was collected at 0.5, 1, 2, 4, 7, 24, and 48 hours and added to a 60 μL mixture of water:acetonitrile:TFA (79:20:1) to prevent further hydrolysis. This solution also contained 2 mM 6α-methyl prednisolone as an internal standard. The samples were then stored at −20° C. until analyzed with RP-HPLC and eluted with a linear gradient of 24-55% acetonitrile in water with 0.1% TFA. The amount of hydrocortisone hydrolyzed from the prodrug was determined by comparing its peak area to that of 6α-methyl prednisolone. The T50% of the prodrug was calculated from 0.693/S, where S is the mean slope giving the best correlation coefficient in the linear part of the logarithmic curve of unhydrolyzed prodrug (1-[hydrocortisone]) versus time. […] Thirty microliter samples were collected at 10, 20, 30, and 60 minutes and analyzed as previously described.

[2] = Release of hydrocortisone from coupled prodrugs on the articular surface of cartilage
Protocol: After the overnight rinse in Buffer 2 with protease inhibitors and the subsequent washes with Buffer 1, each sample was incubated in 100 μL of sterile Buffer 1, normal bovine synovial fluid, or human osteoarthritic synovial fluid at 37° C. […] At the end of the experiment, the samples were digested and analyzed as previously described.

[3] = system: articular surface of cartilage; assay: Coupling of hydrocortisone prodrugs to the articular surface of cartilage via tTG; assay type: biochemical, bovine; settings: in the absence of tTG
Protocol: Modified tissue samples were immersed in tissue freezing media and frozen at −80° C. until use. Tissue slices (25 μm thick) were cut using a cryostat (Microm HM505N, Carl Zeiss) and the freezing media was removed with 3 washes of Buffer 1. Blocking was performed with 4% goat serum in Buffer 1 (blocking buffer) for 1 hour at room temperature. The tissue sections were then incubated with 10 μg/mL mouse anti-hydrocortisone antibody for 1.5 h in the blocking buffer at room temperature, rinsed 3 times with Buffer 1 for 5 minutes each, and then incubated with fluorescein conjugated goat anti-mouse antibody (1/200) in blocking buffer for 1 hour. Samples were rinsed again with Buffer 1 and then imaged using a Leica epifluorescent microscope (λex=495 nm, λem=520 nm for fluorescein) and a SPOT RT digital camera (Diagnostic Instruments, Sterling Heights, Mich.).

[4] = system: Fresh articular cartilage; settings: in the presence of enzyme
[5] = in the presence of tTG, 50 μM conjugate, 0.5 U/mL tTG, 30 min at 37° C.

T3 sequence (P10451 17-314, species assumed): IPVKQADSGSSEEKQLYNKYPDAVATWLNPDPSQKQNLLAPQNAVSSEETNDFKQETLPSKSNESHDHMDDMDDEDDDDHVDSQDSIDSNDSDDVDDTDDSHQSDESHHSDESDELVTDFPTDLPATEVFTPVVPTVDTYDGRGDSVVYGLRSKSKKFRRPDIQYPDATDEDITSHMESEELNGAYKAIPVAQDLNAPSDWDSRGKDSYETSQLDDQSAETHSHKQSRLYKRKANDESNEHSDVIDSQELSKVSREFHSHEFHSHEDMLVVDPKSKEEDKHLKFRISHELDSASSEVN
T1 sequence (P02458 201-1214 limits assumed): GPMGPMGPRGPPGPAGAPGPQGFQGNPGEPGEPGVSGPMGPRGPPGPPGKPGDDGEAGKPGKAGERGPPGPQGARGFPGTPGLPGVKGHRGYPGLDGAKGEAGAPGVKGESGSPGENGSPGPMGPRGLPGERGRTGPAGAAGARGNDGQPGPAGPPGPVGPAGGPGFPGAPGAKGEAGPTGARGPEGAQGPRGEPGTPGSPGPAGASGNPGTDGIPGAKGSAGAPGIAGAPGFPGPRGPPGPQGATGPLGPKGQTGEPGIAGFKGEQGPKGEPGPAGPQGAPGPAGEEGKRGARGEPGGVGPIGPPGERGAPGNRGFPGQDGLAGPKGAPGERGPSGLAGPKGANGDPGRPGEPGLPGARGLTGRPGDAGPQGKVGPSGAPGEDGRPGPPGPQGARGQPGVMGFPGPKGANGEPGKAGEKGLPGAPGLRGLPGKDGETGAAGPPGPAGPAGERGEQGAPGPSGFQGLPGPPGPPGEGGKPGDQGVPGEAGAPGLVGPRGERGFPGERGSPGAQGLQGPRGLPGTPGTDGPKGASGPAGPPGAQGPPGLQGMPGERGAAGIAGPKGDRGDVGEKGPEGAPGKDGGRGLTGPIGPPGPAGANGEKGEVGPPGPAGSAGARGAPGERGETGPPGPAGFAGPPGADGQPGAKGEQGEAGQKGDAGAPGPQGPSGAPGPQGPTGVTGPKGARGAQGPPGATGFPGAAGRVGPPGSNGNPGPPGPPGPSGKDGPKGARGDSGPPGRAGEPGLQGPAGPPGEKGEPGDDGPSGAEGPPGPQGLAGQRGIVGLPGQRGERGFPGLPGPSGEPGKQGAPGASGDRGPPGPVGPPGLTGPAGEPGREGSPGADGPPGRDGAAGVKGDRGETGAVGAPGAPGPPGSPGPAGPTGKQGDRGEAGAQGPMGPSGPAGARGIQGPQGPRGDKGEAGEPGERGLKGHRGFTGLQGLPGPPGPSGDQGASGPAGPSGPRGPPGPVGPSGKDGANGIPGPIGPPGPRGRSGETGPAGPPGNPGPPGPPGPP
T4 sequence (P02751 32-2477, species assumed): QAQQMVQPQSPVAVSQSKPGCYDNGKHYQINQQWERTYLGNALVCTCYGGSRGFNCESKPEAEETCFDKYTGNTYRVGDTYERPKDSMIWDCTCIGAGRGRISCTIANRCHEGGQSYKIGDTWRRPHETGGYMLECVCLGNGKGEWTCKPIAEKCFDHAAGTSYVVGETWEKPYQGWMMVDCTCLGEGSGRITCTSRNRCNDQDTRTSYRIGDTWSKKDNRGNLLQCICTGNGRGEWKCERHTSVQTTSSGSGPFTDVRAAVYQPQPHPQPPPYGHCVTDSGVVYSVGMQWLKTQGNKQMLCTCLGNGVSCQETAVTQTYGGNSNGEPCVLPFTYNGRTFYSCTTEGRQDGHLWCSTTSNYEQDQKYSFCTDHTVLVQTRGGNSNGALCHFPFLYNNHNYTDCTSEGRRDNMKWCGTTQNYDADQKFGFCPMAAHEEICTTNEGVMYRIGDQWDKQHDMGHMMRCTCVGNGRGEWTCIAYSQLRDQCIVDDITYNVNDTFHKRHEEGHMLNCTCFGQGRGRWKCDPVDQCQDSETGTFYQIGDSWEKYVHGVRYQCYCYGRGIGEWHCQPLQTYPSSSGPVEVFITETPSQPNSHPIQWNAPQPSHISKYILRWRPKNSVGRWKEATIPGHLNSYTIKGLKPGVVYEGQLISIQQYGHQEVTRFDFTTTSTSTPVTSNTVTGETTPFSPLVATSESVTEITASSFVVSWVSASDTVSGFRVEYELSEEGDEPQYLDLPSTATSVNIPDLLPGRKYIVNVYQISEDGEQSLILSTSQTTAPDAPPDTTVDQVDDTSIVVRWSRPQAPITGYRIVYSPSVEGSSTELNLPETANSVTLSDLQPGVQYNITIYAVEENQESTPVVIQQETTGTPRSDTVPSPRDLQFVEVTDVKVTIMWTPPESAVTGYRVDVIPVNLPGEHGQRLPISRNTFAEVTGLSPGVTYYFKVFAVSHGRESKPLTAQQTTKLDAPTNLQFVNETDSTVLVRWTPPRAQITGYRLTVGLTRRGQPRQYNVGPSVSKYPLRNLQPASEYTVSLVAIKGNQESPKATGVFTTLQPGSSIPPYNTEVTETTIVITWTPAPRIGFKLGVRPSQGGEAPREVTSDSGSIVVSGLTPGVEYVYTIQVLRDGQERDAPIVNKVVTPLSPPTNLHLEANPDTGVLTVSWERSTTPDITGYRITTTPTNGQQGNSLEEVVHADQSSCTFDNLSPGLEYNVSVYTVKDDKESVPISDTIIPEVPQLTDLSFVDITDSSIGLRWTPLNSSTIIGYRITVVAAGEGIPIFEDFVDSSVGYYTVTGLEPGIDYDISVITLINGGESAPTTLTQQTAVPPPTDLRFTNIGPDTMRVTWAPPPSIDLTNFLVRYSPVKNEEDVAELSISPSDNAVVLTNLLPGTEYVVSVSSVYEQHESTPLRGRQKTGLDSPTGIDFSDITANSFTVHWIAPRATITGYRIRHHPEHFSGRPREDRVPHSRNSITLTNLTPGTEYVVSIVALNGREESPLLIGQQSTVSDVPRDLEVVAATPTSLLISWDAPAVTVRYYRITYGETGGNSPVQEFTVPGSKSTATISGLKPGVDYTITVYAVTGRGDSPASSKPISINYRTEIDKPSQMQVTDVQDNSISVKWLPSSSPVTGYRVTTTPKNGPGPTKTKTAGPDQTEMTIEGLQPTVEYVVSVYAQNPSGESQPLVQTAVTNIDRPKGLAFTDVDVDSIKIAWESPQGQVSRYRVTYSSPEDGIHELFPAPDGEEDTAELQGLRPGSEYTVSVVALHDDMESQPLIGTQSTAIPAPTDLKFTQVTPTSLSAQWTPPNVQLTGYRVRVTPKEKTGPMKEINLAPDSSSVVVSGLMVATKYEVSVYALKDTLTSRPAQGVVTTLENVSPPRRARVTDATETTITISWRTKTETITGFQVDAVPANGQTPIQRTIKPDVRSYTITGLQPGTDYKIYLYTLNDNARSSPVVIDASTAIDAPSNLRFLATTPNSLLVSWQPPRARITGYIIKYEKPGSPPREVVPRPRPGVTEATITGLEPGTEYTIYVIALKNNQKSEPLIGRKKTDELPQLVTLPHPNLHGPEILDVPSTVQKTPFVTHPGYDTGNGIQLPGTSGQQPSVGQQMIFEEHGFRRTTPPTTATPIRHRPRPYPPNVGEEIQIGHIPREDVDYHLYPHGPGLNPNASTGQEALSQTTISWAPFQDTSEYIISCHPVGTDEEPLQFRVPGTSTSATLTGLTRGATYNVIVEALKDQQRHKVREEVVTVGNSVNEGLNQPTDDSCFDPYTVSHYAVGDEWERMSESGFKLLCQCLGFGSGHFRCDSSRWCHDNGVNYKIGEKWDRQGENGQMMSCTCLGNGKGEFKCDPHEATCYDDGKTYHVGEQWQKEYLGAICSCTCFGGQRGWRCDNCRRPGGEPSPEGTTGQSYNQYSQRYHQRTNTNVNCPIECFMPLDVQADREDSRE

Molecule: Biotin-(EO)2-GNNNLG-NH2 [B2N]
- coupling to cartilage (anti-biotin fluorescence) (cartilage sections; [5]): no coupling was detected
- reactivity / normalized band intensity on western blot (collagen II): did not demonstrate crosslinking
- reactivity / normalized band intensity on western blot (osteonectin): did not demonstrate crosslinking
- reactivity / normalized band intensity on western blot (osteopontin): did not demonstrate crosslinking
- reactivity / normalized band intensity on western blot (Fibronectin): did not demonstrate crosslinking

Molecule: Biotin-PEG-FKG-NH2 [B72K]
- coupling to cartilage (anti-biotin fluorescence) (cartilage sections; [5]): enzymatically crosslinked to the cartilage sections
- average depth of peptide coupling (cartilage): 9.8 μm
- reactivity / normalized band intensity on western blot (collagen II): statistically greater than for B2Q or B72Q; also recorded: reactive toward collagen II
- number of conjugate molecules coupled per protein (MALDI-TOF) (osteonectin): up to 4
- reactivity / normalized band intensity on western blot (osteonectin): statistically greater than for B2Q or B72Q
- number of conjugate molecules coupled per protein (MALDI-TOF) (osteopontin): one
- reactivity / normalized band intensity on western blot (Fibronectin): statistically greater than for B2Q or B72Q

Molecule: GQQQLG (GQQQLG-NH2) [glutamine (acyl donor) peptide substrate of tTG]
- specificity (tTG): 34.1 mM⁻¹ min⁻¹
- coupling to cartilage (anti-biotin fluorescence) (cartilage sections; [5]): bind to cartilage surfaces via tTG

Molecule: FKG
- specificity (tTG): 560 mM⁻¹ min⁻¹
- coupling to cartilage (anti-biotin fluorescence) (cartilage sections; [5]): bind to cartilage surfaces via tTG

Molecule: C[C@]12CCC(=O)C=C1CC[C@@H]1[C@@H]2[C@@H](O)C[C@@]2(C)[C@H]1CC[C@]2(O)C(=O)COC(=O)CCC(=O)NCC(=O)N[C@@H](Cc1ccccc1)C(=O)N[C@@H](CCCCN)C(=O)NCC(=O)O [TRIP-C, Hydrocortisone-GFKG prodrug] (X1-GFKG-OH)
- T50% ([1]; 1.0 mM, 75% normal synovial fluid in Buffer 1, 37° C.): 11.1 min
- times more rapid hydrolysis in synovial fluid than in Buffer 1 ([1]; 37° C.): 4
- hydrocortisone released from tissue-bound prodrug ([2]; 4 to 48 hours, 37° C., Buffer 1, bovine synovial fluid, human OA synovial fluid): statistical increase in the amount of hydrocortisone released
- hydrocortisone hydrolysis from coupled prodrug, TRIP-C compared with TRIP-PC ([2]; any of the fluids utilized): no difference in hydrocortisone hydrolysis

Molecule: C[C@]12CCC(=O)C=C1CC[C@@H]1[C@@H]2[C@@H](O)C[C@@]2(C)[C@H]1CC[C@]2(O)C(=O)CO [hydrocortisone]
- immunofluorescence on articular surface (anti-hydrocortisone) ([3]; 1.0 mM): no immunofluorescence was detected
- nonspecific adsorption, hydrocortisone detected on the tissue surface [3]: minimal amount of hydrocortisone detected

Molecule: Biotin-(EO)2-FKG-NH2 [B2K]
- coupling to cartilage (anti-biotin fluorescence) (cartilage sections; in the absence of tTG): no observed fluorescence
- coupling to cartilage (anti-biotin fluorescence) (cartilage sections; [5]): enzymatically crosslinked to the cartilage sections
- depth of staining (cartilage; undigested cartilage tissue treated with tTG): 5.8 microns
- average depth of peptide coupling (cartilage): 13 μm
- reactivity / normalized band intensity on western blot (collagen II): statistically greater than for B2Q or B72Q; also recorded: reactive toward collagen II
- reactivity / normalized band intensity on western blot (osteonectin): statistically greater than for B2Q or B72Q
- reactivity / normalized band intensity on western blot (Fibronectin): statistically greater than for B2Q or B72Q

Molecule: Biotin-(EO)2-GQQQLG-NH2 [B2Q]
- coupling to cartilage (anti-biotin fluorescence) (cartilage sections; in the absence of tTG): no observed fluorescence
- coupling to cartilage (anti-biotin fluorescence) (cartilage sections; [5]): enzymatically crosslinked to the cartilage sections
- average depth of peptide coupling (cartilage): 9.8 μm
- reactivity / normalized band intensity on western blot (collagen II): less reactive toward collagen II in solution
- reactivity / normalized band intensity on western blot (osteopontin): significantly greater normalized band intensity than the B2K and B72K

Molecule: Biotin-PEG-GQQQLG-NH2 [B72Q]
- coupling to cartilage (anti-biotin fluorescence) (cartilage sections; [5]): enzymatically crosslinked to the cartilage sections
- average depth of peptide coupling (cartilage): 8.6 μm
- reactivity / normalized band intensity on western blot (collagen II): less reactive toward collagen II in solution
- number of conjugate molecules coupled per protein (MALDI-TOF) (osteonectin): up to 3
- number of conjugate molecules coupled per protein (MALDI-TOF) (osteopontin): up to two

Molecule: Biotin-FKG-HA
- anti-biotin antibody staining of tissue surface [4]: intense staining

Molecule: Biotin-PEG-G-NH2 [B72]
- coupling to cartilage (anti-biotin fluorescence) (cartilage sections; [5]): lack of fluorescence
- reactivity / normalized band intensity on western blot (collagen II): did not demonstrate crosslinking
- reactivity / normalized band intensity on western blot (osteonectin): did not demonstrate crosslinking
- reactivity / normalized band intensity on western blot (osteopontin): did not demonstrate crosslinking
- reactivity / normalized band intensity on western blot (Fibronectin): did not demonstrate crosslinking

Molecule: Biotin-(EO)2-FOG-NH2 [B2O]
- coupling to cartilage (anti-biotin fluorescence) (cartilage sections; [5]): no coupling was detected
- reactivity / normalized band intensity on western blot (collagen II): did not demonstrate crosslinking
- reactivity / normalized band intensity on western blot (osteonectin): did not demonstrate crosslinking
- reactivity / normalized band intensity on western blot (osteopontin): did not demonstrate crosslinking
- reactivity / normalized band intensity on western blot (Fibronectin): did not demonstrate crosslinking

Reference: patent publication US8426179B2, “Synthetic peptide and peptide conjugates and related tissue coupling methods via transglutaminase enzyme” (priority 2007, dated 2013)
